# Measured values: paper PMC10017700, “The SMARCA4^R1157W mutation facilitates chromatin remodeling and confers PRMT1/SMARCA4 inhibitors sensitivity in colorectal cancer” (NPJ Precision Oncology, 2023)
# How the values were obtained:
# [1] = test system: SMARCA4-WT HCT116 cell line-derived xenograft; test: CDX mouse model, SMARCA4-WT; format: in vivo, BALB/c female nude mice; details: oral, 14 days
# Description: (§1) To establish cell line-derived xenograft (CDX) mouse models, 6-week-old BALB/c female nude mice were obtained from the Model Animal Research Center of Nanjing University (Nanjing, China). All animal experimental procedures were approved by the Animal Ethical and Welfare Committee of Nanjing University. Approximately 5 × 10^6 SMARCA4 wild-type or R1157W mutant HCT116 cells were injected subcutaneously into the right flank of each mouse. The mice were randomized into 4 groups (6 mice/group) when the tumor volume reached approximately 80 mm^3 (volume = 0.52 × length × width^2), at which point drug dosing every day was initiated. GSK-PTi (GSK3368715, HY-128717A, MCE)[32] and BBAi-1 (BRM/BRG1 ATP inhibitor-1, HY-119374, MCE)[33] were dissolved in 10% DMSO, 90% saline (containing 20% SBE-β-CD). GSK-PTi (25 mg/kg) and BBAi-1 (2.5 mg/kg) were administered orally. Body weight and tumor volume of the mice were measured every two days. Treatments were continued for 14 days, after which all mice were euthanized for analysis. Tumor tissues were weighed and prepared for immunoblotting or immunohistochemical staining. Tumor growth inhibition (TGI) rate was measured using the formula: TGI (%) = [1−(Vt−V0 in treated group)/Vt−V0 in vehicle group)]×100 where Vt is the volume on each day and V0 is the volume at the beginning of the treatment.
# [2] = test system: SMARCA4-R1157W mutant HCT116 cell line-derived xenograft; test: CDX mouse model, SMARCA4-R1157W; format: in vivo, BALB/c female nude mice; details: oral, 14 days
# Description: as §1
# SMARCA2 and SMARCA4 = details: SMARCA bromodomain inhibitor; cited from earlier work
# Excerpt: However, SMARCA2, another core subunit of the SWI/SNF complex with ATPase activity, also harbors a highly conserved HELICc domain (Supplementary Fig. 7a). […] It would be interesting to test whether other HELICc domain-containi ...
# mononucleosomes = test: Nucleosome sliding assay; format: biochemical; details: 60 or 90 min, 30 °C, 2 mM ATP, Fig. 4c
# Description: The nucleosome sliding assay was performed as previously described with several modifications[41],[47]. A 255 bp DNA template from the Widom 601 positioning sequence[48] was assembled into mononucleosomes by the “salt jump” method in the presence of core histones isolated from HeLa cells. Mononucleomes (100 ng DNA) were incubated with wild-type or mutant SMARCA4 proteins (100 ng) in 40 μl reactions containing 20 mM HEPES–NaOH (pH 7.9), 50 mM MgCl2, 1 mM DTT, 0.1 mM PMSF, 0.1 mg/ml BSA, 3% glycerol, 0.02% NP-40, 0.02% Triton X-100, 2 mM ATP at 30 °C for 0, 30, 60, or 90 min. Reactions were quenched by the addition of 20 mM EDTA and 1% glycerol. Samples were resolved by 6% native polyacrylamide/0.5×TBE gel electrophoresis and visualized by SYBR green staining (Invitrogen).
# [3] = test system: ATP (ATPase activity of SMARCA4); test: ATPase assay, γ-32P ATP thin-layer chromatography; format: biochemical; details: in the presence of DNA, TLC, 30 °C, 0-90 min, Fig. 4b
# Description: The ATPase assays were performed as described previously with modifications. The 20 μl reactions contained 50 mM Tris (pH 7.5), 50 mM NaCl, 8 mM MgCl2, 0.5 mM PMSF, 2 mM ATP, 2 mM DTT, and 1 μg of a 1 kb DNA fragment. The reaction was initiated by adding 1 μl of 10 mCi/ml [γ-^32P] ATP (3000 Ci/mmole; PerkinElmer) and 1 μg of SMARCA4 wild-type or mutant proteins. The reactions were then incubated at 30 °C for the indicated times (0, 15, 30, 60, and 90 min) and were stopped by the addition of 5 μl of 500 mM EDTA. One microliter of the reaction mixture was spotted onto PEI-cellulose TLC plates (Merck), and chromatography was run in 0.5 M LiCl, 1 M formic acid. The ratio of inorganic phosphate to ATP at each time point was quantified using a Molecular Dynamics Phosphorimager (Amersham Biosciences) and ImageQuant TL software.
# [4] = test system: ATP (ATPase activity of SMARCA4); test: ATPase kinetic assay (ATPase activity assay kit); format: biochemical
# Description: An ATPase activity assay kit (#MAK113, Sigma,) was used to measure the Kinetic parameters (Vmax, Km, and Kcat) of SMARCA4 on ATP. In detail, SMARCA4-WT and -R1157W mutant proteins were incubated with saturating amounts of plasmid DNA and various concentrations of ATP. Reaction rates were determined by quantitating the fraction of ATP hydrolyzed at multiple time points. Kinetic parameters were determined by fitting the initial rate data to the Michaelis–Menten equation using the Origin software. All reactions were performed in triplicate.
# [5] = GSK-PTi 25 mg/kg and/or BBAi-1 2.5 mg/kg, daily, 6 mice/group
# [6] = saturating plasmid DNA, various ATP concentrations, Michaelis–Menten fit, triplicate, mean ± SD
# [7] = over 2-fold higher, Supplementary Fig. 5c, d
compound,measurement,setting,value
CCOCC1(COCC)CCC(c2[nH]ncc2CN(C)CCNC)CC1 [GSK-PTi],tumor growth inhibition (TGI) rate,[1]; [5],23%
same,therapeutic effect of daily single treatment,[1],moderate therapeutic effect
same,tumor growth inhibition (TGI) rate,[2]; [5],45.3%
same,therapeutic effect of daily single treatment (versus SMARCA4-WT CDX),[2],better therapeutic effect
same,effect in SMARCA4-R1157W mutant versus SMARCA4-WT model mice,"[2]; daily, comparison of the two model mouse groups",no statistically significant differences
O=C(/C=C/N1C[C@H]2C[C@@H]1CN2c1ccccn1)c1ccccc1O [PFI-3],differentiation between SMARCA2 and SMARCA4,SMARCA2 and SMARCA4,could not differentiate between SMARCA2 and SMARCA4
SMARCA4-R1157W: R1157W mutant SMARCA4 protein,lateral sliding of centrally positioned nucleosomes compared to SMARCA4-WT,mononucleosomes,further catalyzed lateral sliding of centrally positioned nucleosomes
same,ATPase activity compared to SMARCA4-WT,[3],significantly augmented
same,Kcat / Km,"[4]; saturating plasmid DNA, various ATP concentrations",17.47 M⁻¹ s⁻¹
same,Kcat,[4]; [6],0.00242 ± 6.7e-05 s⁻¹
same,Km,[4]; [6],138 ± 17.4 µM
same,Vmax,[4]; [6],241.6 ± 8.16 mM/min/mg
SMARCA4-WT mutant: as printed; probably misprint for SMARCA4-R1157W mutant protein,Kcat relative to SMARCA4-WT protein,[4]; [7],over 2 fold
same,Vmax relative to SMARCA4-WT protein,[4]; [7],over 2 fold
